Source: ChEMBL document CHEMBL4680156, “Discovery of novel pyrido-pyrrolidine hybrid compounds as alpha-glucosidase inhibitors and alternative agent for control of type 1 diabetes” (Eur J Med Chem, 2020)

What was measured:
[1] = Inhibition of Saccharomyces cerevisiae alpha-glucosidase using pNPG as substrate preincubated for 15 mins followed by substrate addition and measured after 30 mins by spectrophotometric analysis
[2] = Inhibition of Saccharomyces cerevisiae alpha-glucosidase using PNPG as substrate incubated for 10 mins by spectrophotometric method
[3] = target: T1, Alpha-mannosidase (Canavalia ensiformis) (UniProt C0HJB3); assay: Inhibition of jack bean alpha-mannosidase at 1 mM using […] as substrate incubated for 10 mins by spectrophotometric method
T1 sequence (whole entry): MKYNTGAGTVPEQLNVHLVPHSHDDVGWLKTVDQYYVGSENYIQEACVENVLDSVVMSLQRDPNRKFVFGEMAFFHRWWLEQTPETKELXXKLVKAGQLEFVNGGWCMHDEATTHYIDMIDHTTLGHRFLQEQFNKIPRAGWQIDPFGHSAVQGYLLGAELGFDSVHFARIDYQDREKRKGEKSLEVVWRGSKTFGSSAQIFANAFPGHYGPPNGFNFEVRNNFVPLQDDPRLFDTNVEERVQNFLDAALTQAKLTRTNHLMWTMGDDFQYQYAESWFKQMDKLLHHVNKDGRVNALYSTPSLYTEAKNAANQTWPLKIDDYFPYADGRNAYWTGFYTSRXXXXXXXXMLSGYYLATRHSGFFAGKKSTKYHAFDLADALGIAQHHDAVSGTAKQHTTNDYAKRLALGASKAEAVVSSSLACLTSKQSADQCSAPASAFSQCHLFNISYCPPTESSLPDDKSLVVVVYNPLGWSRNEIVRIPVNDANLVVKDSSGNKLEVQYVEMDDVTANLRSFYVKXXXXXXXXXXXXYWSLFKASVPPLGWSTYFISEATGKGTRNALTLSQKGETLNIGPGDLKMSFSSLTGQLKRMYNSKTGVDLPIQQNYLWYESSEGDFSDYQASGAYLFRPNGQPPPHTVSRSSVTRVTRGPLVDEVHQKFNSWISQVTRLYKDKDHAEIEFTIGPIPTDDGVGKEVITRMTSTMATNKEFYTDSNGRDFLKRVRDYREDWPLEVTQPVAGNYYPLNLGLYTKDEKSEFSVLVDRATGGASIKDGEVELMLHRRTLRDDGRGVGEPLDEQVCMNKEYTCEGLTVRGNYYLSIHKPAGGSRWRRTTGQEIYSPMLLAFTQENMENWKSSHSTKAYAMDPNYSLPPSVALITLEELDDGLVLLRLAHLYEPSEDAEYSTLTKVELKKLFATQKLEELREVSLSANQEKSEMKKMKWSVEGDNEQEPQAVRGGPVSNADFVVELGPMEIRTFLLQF

[4] = Non-competitive inhibition of rat intestinal alpha-glucosidase; format: tissue-based, Intestine
[5] = target: T2, Tissue alpha-L-fucosidase (Bos taurus, UniProt Q2KIM0); assay: Inhibition of bovine kidney alpha-fucosidase using […] as substrate incubated for 10 mins by spectrophotometric method
T2 sequence (Q2KIM0 whole entry): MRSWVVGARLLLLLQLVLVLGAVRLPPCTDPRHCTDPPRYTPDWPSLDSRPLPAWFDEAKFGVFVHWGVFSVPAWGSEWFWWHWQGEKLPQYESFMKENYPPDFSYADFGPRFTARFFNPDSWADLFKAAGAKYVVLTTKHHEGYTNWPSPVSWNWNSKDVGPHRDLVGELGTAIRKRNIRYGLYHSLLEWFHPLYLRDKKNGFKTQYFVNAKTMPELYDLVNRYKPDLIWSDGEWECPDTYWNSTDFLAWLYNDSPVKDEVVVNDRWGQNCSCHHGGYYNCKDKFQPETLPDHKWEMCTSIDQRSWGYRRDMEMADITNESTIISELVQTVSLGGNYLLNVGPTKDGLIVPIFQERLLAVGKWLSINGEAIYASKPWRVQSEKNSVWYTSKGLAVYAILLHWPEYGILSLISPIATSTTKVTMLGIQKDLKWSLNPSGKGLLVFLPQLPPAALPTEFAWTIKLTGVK

Alpha-mannosidase = target: T3, Alpha-mannosidase (Canavalia ensiformis, UniProt C0HJB3); assay: Inhibition of jack bean alpha-mannosidase using […] as substrate incubated for 10 mins by spectrophotometric method
T3 sequence (C0HJB3 whole entry): T1 sequence (whole entry)

Structure (SMILES) | IC50 [1] [µM] | IC50 [2] [µM] | inhibition [3] [%] | Ki [4] [µM] | IC50 [5] [µM] | IC50 (Alpha-mannosidase) [µM]
CCCCCCCCn1cnc2cc(N)c(-c3ccccc3O)cc21 | 0.16 | 5.03 | < 50 |  |  | 
CCC/C=C1/OC(=O)c2ccccc21 [(E)-BUTYLIDENEPHTHALIDE] |  | 7.15 |  | 4.86 | 82 | 41
